# Article PMC3761975 (Current drug safety, 2010)
# Like-named read-outs stand apart in the source and are kept apart here.
# Assays:
# [1] = tested on: CYP 2C9; conditions: read-out: Literature IC50, CYP 2C9; published limits; cited from earlier work
# [2] = tested on: CYP 1A2; conditions: cited from earlier work
# [3] = tested on: CYP1A2, CYP2C9, CYP2D6, CYP3A4; test: CYP isozyme bioassays, results stated across several isozymes; conditions: human, pH 7.5
# [4] = molecular target: T1, CYP1A2 (Homo sapiens, UniProt P05177); test: CYP1A2 fluorometric microtiter plate inhibition assay
# T1 sequence (P05177 1-516): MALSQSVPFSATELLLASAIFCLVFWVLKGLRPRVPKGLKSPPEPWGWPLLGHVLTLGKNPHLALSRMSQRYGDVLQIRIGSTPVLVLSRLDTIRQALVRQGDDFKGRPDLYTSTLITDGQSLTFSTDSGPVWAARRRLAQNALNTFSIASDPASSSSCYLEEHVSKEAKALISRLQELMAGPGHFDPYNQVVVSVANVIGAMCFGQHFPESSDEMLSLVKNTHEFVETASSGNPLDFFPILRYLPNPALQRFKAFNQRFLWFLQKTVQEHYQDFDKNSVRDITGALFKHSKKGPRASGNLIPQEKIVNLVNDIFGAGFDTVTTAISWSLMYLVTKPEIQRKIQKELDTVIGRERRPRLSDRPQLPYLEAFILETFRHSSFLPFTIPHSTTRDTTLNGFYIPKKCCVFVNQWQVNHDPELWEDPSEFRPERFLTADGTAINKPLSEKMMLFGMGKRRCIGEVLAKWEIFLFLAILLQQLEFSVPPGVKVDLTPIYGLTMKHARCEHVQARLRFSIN
# [5] = molecular target: T2, CYP2C9 (Homo sapiens, UniProt P11712); test: CYP2C9 fluorometric microtiter plate inhibition assay
# [6] = molecular target: T3, CYP2D6 (Homo sapiens, UniProt P10635); test: CYP2D6 fluorometric microtiter plate inhibition assay
# [7] = molecular target: T4, CYP3A4 (Homo sapiens, UniProt P08684); test: CYP3A4 fluorometric microtiter plate inhibition assay
# [8] = tested on: CYP 2D6; conditions: read-out: Literature IC50, CYP 2D6; published limits; cited from earlier work
# [9] = molecular target: T1, CYP1A2; conditions: recombinant enzyme
# [10] = molecular target: T4, CYP3A4; conditions: recombinant enzyme
# [11] = molecular target: T2, CYP2C9; conditions: recombinant enzyme
# [12] = molecular target: T3, CYP2D6; conditions: recombinant enzyme
# [13] = tested on: CYP3A4; conditions: cited from earlier work
# [14] = tested on: CYP2C9, CYP3A4; test: in vitro; conditions: human, pH 7.5
# T2 sequence (P11712 whole entry): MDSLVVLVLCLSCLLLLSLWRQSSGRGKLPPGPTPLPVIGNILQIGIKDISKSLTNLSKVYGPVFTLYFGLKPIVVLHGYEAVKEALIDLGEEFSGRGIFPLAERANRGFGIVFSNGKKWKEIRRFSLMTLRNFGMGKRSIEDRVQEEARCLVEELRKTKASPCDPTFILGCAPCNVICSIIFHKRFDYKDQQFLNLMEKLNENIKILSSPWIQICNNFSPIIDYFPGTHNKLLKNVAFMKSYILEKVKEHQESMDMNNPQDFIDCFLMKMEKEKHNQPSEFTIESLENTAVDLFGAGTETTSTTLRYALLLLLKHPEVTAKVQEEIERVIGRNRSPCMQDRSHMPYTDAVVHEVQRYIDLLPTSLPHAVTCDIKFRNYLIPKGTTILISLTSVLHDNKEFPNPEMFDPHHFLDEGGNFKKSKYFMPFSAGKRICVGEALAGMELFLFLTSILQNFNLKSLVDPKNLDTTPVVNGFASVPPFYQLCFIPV
# T4 sequence (P08684 whole entry): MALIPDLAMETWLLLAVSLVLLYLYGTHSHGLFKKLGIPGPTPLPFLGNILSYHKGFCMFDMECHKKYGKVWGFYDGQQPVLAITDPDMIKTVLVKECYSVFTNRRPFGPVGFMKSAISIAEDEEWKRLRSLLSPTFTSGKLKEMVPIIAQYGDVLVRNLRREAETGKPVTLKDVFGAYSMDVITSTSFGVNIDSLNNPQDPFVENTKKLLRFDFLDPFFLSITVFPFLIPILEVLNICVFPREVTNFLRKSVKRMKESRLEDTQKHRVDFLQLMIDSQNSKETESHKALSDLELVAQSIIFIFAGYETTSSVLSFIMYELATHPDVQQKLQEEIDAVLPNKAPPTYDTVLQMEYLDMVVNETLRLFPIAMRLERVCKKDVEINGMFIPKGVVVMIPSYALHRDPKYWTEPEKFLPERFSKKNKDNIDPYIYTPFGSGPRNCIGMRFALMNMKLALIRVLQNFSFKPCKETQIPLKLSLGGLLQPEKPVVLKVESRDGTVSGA
# T3 sequence (P10635 whole entry): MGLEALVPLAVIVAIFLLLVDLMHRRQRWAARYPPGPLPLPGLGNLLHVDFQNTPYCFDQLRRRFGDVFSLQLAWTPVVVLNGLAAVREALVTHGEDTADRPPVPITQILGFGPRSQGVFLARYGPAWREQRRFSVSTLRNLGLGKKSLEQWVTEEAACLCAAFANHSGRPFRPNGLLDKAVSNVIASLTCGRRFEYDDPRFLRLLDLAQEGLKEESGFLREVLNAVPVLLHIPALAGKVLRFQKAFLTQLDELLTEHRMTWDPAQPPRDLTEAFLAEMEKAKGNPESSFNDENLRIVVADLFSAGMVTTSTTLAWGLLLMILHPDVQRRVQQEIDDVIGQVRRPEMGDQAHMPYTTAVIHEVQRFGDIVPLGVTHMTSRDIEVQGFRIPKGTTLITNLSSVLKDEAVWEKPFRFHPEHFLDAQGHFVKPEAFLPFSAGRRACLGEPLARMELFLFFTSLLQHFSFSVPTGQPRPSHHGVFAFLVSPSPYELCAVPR
IC50 [4] [µM],IC50 [5] [µM],IC50 [6] [µM],IC50 [7] [µM],Compound,other results
–,–,–,–,Oc1ccc(/C=C/c2cc(O)cc(O)c2)cc1 [resveratrol],IC50 ([2]; read-out: Inhibitory IC50 in CYP 1A2): 1.89 µM
7.2,8.3,9,9.7,"COc1cc(/C=C/C(=O)O[C@H](C(=O)O)[C@](O)(Cc2ccc(O)c(O)c2)C(=O)O)ccc1O [CAA, Cimicifugic acid A]",IC50 [3]: 1.8 to 12.6 µM
7.35,12.5,12.6,9.8,"COc1ccc(/C=C/C(=O)O[C@H](C(=O)O)[C@](O)(Cc2ccc(O)c(O)c2)C(=O)O)cc1O [CAB, Cimicifugic acid B]",IC50 [3]: 1.8 to 12.6 µM
–,–,–,–,"CC(=O)O[C@@H]1C[C@@]23C[C@@]24CC[C@H](O[C@@H]2OC[C@@H](O)[C@H](O)[C@H]2O)C(C)(C)[C@@H]4CC[C@H]3[C@]2(C)C[C@@H]3O[C@@]4(C[C@@H](C)[C@@H]3[C@@]12C)OC[C@@]1(C)O[C@@H]41 [Deoyxactein, 23-epi-26-deoxyactein]",IC50 [9]: > 100 µM; IC50 [10]: 28.7 µM; IC50 [11]: 25.9 µM; IC50 [12]: 100 µM
1.8,7.1,5.4,7.2,"O=C(/C=C/c1ccc(O)c(O)c1)O[C@H](C(=O)O)[C@](O)(Cc1ccc(O)c(O)c1)C(=O)O [Fukinolic acid, fukinolic acid]",IC50 [3]: 1.8 to 12.6 µM
–,–,–,–,CC(=O)O[C@@H]1C[C@@]23C[C@@]24CC[C@H](O[C@@H]2OC[C@@H](O)[C@H](O)[C@H]2O)C(C)(C)[C@@H]4CC[C@H]3[C@]2(C)C[C@@H]3O[C@]4(C[C@@H](C)[C@@H]3[C@@]12C)OC[C@@]1(C)O[C@@H]41 [26-deoxyactein],"IC50 ([13]; read-out: IC50 for CYP3A4 inhibition, Tsukamoto et al.): 100 µM"

Compound,IC50 [4] [µM],IC50 [5] [µM],IC50 [6] [µM],IC50 [7] [µM],other results
"CC(=O)O[C@@H]1C[C@@]23C[C@@]24CC[C@H](O[C@@H]2OC[C@@H](O)[C@H](O)[C@H]2O)C(C)(C)[C@@H]4CC[C@H]3[C@]2(C)C[C@@H]3O[C@]4(C[C@@H](C)[C@@H]3[C@@]12C)O[C@H](O)[C@@]1(C)O[C@@H]41 [Actein, actein]",> 100,25,51.1,35.2,IC50 [14]: 16.9 to 33.8 µM
